Experiment [1] has as its target T1, human 5-HT2B receptor (Homo sapiens, UniProt P41595).
T1 construct: expressed in transfected cells; host or cells: HEK 293
Details: method as in Luethi et al., 2018. To be noted: ref Luethi et al., 2018, cited from earlier work.

Experiment [2] addresses T2, 5-HT1A receptor (Homo sapiens, UniProt P08908).
T2 construct: expressed in transfected cells; host or cells: HEK 293 (membrane preparation)
T2 sequence (P08908 1-422): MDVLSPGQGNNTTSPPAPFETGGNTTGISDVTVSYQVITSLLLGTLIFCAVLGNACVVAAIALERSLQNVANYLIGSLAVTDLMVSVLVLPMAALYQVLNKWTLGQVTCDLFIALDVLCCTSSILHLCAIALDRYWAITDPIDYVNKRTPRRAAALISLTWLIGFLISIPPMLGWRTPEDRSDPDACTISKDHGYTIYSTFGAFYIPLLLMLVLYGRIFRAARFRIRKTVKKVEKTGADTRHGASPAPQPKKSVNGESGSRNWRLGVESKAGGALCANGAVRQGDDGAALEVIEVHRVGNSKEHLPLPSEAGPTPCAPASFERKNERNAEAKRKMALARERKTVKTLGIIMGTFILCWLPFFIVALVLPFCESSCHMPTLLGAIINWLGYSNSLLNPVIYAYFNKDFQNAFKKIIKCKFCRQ
Conditions: cited from earlier work.

The subject of the next experiment is humans. To be noted: ref Shulgin and Shulgin, 1991, cited from earlier work; for Psychoactivity in humans: at the doses tested.
The target of experiment [3] is T3, mouse TAAR1 (Mus musculus, UniProt Q923Y8).
T3 construct: expressed in transfected cells; host or cells: HEK 293 (membrane preparation)
T3 sequence (Q923Y8 whole entry): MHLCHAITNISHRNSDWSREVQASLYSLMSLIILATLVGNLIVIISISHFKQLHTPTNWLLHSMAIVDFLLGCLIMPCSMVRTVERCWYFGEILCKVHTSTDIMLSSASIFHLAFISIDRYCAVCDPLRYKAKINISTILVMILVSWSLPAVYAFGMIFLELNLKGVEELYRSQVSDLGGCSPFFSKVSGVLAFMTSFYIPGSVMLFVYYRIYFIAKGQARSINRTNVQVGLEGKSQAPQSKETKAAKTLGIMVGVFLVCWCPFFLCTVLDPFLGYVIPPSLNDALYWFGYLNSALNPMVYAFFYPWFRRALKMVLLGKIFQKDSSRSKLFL
Also noted: method as in Simmler et al., 2013. To be noted: read-out: mouse TAAR1 Ki ± SD; [3H]RO5166017; ref Simmler et al., 2013; cited from earlier work.

For experiment [4], the target named is T4, hNET (Homo sapiens, UniProt P23975). Also noted: expressed in transfected cells; host or cells: HEK 293 (membrane preparation); method as in Simmler et al., 2013. To be noted: read-out: hNET Ki ± SD; N-methyl-[3H]nisoxetine; ref Simmler et al., 2013; cited from earlier work.
T4 sequence (P23975 whole entry): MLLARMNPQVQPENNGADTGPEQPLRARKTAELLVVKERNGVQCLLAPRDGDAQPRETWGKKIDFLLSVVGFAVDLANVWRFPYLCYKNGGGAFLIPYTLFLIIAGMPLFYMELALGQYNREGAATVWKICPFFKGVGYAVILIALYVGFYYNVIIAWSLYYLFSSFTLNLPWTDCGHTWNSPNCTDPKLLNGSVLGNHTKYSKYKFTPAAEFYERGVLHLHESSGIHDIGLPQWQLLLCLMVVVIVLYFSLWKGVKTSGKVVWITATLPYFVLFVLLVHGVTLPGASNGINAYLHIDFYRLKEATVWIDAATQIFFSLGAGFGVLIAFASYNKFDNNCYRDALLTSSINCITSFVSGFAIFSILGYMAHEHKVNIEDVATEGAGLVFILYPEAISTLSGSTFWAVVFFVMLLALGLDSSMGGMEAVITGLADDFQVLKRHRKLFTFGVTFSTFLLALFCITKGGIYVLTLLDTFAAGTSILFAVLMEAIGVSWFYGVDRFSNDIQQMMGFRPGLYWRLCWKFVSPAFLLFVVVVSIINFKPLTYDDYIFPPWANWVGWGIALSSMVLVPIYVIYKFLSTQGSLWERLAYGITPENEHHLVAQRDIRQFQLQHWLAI
For experiment [5], the target named is T5, α2A adrenergic receptor (Homo sapiens, UniProt P08913).
T5 construct: expressed in transfected cells; host or cells: Chinese hamster lung cell line (membrane preparation)
T5 sequence (P08913 1-465): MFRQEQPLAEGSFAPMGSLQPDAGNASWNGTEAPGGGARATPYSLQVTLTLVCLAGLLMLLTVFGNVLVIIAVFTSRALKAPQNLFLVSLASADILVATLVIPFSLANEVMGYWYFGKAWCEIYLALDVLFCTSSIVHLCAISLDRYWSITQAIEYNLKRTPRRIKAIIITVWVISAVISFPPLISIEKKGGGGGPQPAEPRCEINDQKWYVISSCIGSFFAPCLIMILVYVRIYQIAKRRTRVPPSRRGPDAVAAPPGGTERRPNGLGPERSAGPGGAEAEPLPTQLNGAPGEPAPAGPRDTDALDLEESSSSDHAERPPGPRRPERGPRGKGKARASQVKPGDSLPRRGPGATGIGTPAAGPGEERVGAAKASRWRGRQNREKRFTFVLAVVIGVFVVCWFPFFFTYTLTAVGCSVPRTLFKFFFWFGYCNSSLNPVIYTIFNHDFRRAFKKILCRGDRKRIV
Details: method as in Simmler et al., 2013. To be noted: read-out: α2A Ki ± SD; [3H]rauwolscine; ref Simmler et al., 2013; cited from earlier work.

In experiment [6] the target is T6, hSERT (Homo sapiens, UniProt P31645). The experiment in a line: Monoamine uptake transporter inhibition, [3H]5-HT, HEK 293 cells. Conditions: 10 µM.
T6 sequence (P31645 whole entry): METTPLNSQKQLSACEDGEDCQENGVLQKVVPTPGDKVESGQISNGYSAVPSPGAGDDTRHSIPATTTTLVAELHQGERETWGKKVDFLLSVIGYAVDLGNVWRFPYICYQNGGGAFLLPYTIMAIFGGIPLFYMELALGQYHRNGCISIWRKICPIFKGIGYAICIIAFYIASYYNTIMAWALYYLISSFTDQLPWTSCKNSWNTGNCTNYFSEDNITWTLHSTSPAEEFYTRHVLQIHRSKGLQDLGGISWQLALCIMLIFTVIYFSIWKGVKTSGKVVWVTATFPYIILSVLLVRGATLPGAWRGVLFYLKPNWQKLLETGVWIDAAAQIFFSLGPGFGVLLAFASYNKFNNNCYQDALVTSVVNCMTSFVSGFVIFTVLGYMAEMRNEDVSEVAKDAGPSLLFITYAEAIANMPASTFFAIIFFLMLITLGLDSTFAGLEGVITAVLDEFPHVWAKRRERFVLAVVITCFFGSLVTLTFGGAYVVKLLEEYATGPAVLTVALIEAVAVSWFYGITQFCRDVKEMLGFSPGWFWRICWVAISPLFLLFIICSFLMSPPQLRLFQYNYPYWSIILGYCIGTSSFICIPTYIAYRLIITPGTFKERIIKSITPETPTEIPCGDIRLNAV
The target of experiment [7] is T7, α1A adrenergic receptor (Homo sapiens, UniProt P35348).
T7 construct: expressed in transfected cells; host or cells: Chinese hamster ovary cell line (membrane preparation)
T7 sequence (P35348 1-466): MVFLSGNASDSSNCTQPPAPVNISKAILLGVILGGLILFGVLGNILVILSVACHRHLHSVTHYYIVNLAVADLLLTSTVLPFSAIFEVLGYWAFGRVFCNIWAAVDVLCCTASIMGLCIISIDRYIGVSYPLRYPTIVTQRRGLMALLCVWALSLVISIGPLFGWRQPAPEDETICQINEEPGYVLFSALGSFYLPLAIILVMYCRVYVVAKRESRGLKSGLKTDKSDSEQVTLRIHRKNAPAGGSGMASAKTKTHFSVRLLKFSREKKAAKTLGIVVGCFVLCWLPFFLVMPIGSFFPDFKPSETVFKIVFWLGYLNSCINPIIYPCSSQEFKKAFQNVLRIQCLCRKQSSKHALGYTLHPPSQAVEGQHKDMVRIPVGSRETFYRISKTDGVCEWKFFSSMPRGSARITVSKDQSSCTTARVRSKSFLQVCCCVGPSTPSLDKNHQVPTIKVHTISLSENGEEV
Also noted: method as in Simmler et al., 2013. Conditions: read-out: α1A Ki ± SD; [3H]prazosin; ref Simmler et al., 2013; cited from earlier work.

Experiment [8] deals with T8, hDAT (Homo sapiens, UniProt Q01959). Also noted: expressed in transfected cells; host or cells: HEK 293 (membrane preparation); method as in Simmler et al., 2013. To be noted: [3H]WIN35,428; ref Simmler et al., 2013; read-out: hDAT Ki ± SD; cited from earlier work.
T8 sequence (Q01959 whole entry): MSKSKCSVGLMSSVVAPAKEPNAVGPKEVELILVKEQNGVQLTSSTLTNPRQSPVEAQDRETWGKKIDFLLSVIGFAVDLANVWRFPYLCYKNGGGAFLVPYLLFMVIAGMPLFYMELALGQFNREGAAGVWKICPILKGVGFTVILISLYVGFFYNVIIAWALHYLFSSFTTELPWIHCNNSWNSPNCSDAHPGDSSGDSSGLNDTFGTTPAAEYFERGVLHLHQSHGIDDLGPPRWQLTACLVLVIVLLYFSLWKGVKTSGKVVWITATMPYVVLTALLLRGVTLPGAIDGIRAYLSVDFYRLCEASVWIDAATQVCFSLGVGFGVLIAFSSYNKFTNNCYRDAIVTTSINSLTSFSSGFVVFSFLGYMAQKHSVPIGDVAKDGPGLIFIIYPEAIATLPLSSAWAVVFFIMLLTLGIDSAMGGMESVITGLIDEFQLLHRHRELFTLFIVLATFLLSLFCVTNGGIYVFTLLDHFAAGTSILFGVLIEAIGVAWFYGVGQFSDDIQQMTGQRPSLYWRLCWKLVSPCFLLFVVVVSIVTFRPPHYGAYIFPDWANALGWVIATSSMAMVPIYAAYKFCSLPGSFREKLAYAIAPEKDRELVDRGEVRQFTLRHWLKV
The target of experiment [9] is T4, hNET. The experiment in a line: Monoamine uptake transporter inhibition, [3H]norepinephrine, HEK 293 cells. Conditions: 10 µM.
Experiment [10] concerns the target T9, rat TAAR1 (Rattus norvegicus, UniProt Q923Y9).
T9 construct: expressed in transfected cells; host or cells: HEK 293 (membrane preparation)
Also noted: method as in Simmler et al., 2013. Conditions: read-out: rat TAAR1 Ki ± SD; [3H]RO5166017; ref Simmler et al., 2013; cited from earlier work.

Experiment [11] addresses T8, hDAT. Also noted: expressed in transfected cells; host or cells: HEK 293 (membrane preparation). To be noted: read-out: DAT uptake inhibition EC50; known low potency in this assay; no reference given; cited from earlier work.
For experiment [12], the target named is T10, dopaminergic D2 receptor (Homo sapiens, UniProt P14416).
T10 construct: expressed in transfected cells; host or cells: HEK 293 (membrane preparation)
T10 sequence (P14416 whole entry): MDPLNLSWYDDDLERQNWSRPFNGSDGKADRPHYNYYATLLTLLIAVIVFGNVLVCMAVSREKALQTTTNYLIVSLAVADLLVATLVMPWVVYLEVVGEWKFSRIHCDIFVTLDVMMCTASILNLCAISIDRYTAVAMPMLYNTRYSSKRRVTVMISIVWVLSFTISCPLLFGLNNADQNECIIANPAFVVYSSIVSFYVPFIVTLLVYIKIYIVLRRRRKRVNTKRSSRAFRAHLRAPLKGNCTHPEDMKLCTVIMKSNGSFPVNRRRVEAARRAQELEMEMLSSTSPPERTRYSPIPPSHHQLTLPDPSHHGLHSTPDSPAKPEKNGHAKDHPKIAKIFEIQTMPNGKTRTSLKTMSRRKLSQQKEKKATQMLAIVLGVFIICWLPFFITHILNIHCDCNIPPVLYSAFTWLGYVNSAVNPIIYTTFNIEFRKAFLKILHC
Also noted: method as in Simmler et al., 2013. Conditions: read-out: D2 Ki ± SD; [3H]spiperone; ref Simmler et al., 2013; cited from earlier work.

Experiment [13] deals with T8, hDAT. The experiment in a line: Monoamine uptake transporter inhibition, [3H]dopamine, HEK 293 cells. To be noted: 10 µM.
The subject of another experiment is head-twitch response. Details: method as in Halberstadt et al., 2019. To be noted: ref Halberstadt et al., 2019; cited from earlier work.
Experiment [14] has as its target T10, dopaminergic D2 receptor. The experiment is described as follows: Radioligand binding, dopaminergic D2 receptor ([3H]spiperone).
The target of experiment [15] is T6, hSERT. The experiment in a line: Radioligand binding, SERT ([3H]citalopram). Details: expressed in transfected cells; host or cells: HEK 293 (membrane preparation).
Experiment [16] addresses T5, α2A adrenergic receptor. The experiment is described as follows: Radioligand binding, α2A adrenergic receptor ([3H]rauwolscine).
The target of experiment [17] is T2, 5-HT1A receptor. The experiment is described as follows: Radioligand binding, 5-HT1A receptor ([3H]8-OH-DPAT).
The target of experiment [18] is T3, mouse TAAR1. The experiment is described as follows: Radioligand binding, mouse TAAR1 ([3H]RO5166017).
The target in experiment [19] is T9, rat TAAR1. The experiment is described as follows: Radioligand binding, rat TAAR1 ([3H]RO5166017).
Experiment [20] concerns the target T7, α1A adrenergic receptor. The experiment is described as follows: Radioligand binding, α1A adrenergic receptor ([3H]prazosin).
The target in experiment [21] is T4, hNET. The experiment in a line: Radioligand binding, NET (N-methyl-[3H]nisoxetine). Details: expressed in transfected cells; host or cells: HEK 293 (membrane preparation).
Experiment [22] deals with T1, human 5-HT2B receptor. The experiment in a line: Activity at the 5-HT2B receptor (FLIPR calcium, HEK 293 cells). It is filed as cell-based. As to the method: Activity at the 5-HT2B receptor was examined as previously described ([Luethi et al., 2018]). In summary, HEK 293 cells expressing the human 5-HT2B receptor were seeded at a density of 50,000 cells per well in 96-well poly-D-lysine-coated plates overnight at 37°C. The cells were then incubated in growth medium consisting of high glucose Dulbecco’s modified Eagle’s medium (DMEM) (Invitrogen, Zug, Switzerland), 10% fetal calf serum (non-dialyzed, heat-inactivated), 250 mg/l Geneticin and 10 ml/l PenStrep (Gibco), overnight at 37°C. After removal of the growth medium via snap inversion, calcium indicator Fluo-4-solution (100 µl) was injected into each well (Molecular Probes, Eugene, OR, USA) and incubated for 45 min at 31°C. Afterwards, the Fluo-4 solution was removed (snap inversion) and a further 100 µl of the Fluo-4 solution was added and incubated (45 min, 31°C). Thereafter, using the EMBLA cell washer, the cells were washed just before testing with HBSS and 20 mM HEPES and exposed to 100 µl of assay buffer. The well plate was positioned in the FLIPR and while online, 25 µl of the test compounds diluted in assay buffer were added. Concentration-response curves were calculated using nonlinear regression, and EC50 values were obtained. The maximal activity at the receptors was calculated relative to 5-HT activity which was defined as 100%.

Experiment [23] addresses T8, hDAT. The experiment is described as follows: Radioligand binding, DAT ([3H]WIN35,428). Also noted: expressed in transfected cells; host or cells: HEK 293 (membrane preparation).

“Also recorded” adds a separate entry of the source. Read-outs that look alike come from different tables or passages of the source. Bounds are passed on as bounds.

T1 sequence (P41595 whole entry): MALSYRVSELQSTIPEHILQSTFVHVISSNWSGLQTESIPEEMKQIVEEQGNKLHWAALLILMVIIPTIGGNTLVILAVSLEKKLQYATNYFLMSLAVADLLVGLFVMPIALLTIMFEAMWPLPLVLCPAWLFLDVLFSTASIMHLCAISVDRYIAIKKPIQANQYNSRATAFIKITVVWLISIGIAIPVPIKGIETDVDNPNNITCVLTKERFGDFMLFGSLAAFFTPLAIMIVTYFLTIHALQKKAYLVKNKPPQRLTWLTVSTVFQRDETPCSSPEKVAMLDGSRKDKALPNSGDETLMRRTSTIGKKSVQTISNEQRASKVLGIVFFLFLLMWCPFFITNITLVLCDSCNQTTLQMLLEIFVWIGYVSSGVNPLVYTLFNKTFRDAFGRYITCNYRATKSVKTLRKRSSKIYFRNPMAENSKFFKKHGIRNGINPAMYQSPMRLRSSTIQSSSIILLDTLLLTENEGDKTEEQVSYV
T9 sequence (Q923Y9 whole entry): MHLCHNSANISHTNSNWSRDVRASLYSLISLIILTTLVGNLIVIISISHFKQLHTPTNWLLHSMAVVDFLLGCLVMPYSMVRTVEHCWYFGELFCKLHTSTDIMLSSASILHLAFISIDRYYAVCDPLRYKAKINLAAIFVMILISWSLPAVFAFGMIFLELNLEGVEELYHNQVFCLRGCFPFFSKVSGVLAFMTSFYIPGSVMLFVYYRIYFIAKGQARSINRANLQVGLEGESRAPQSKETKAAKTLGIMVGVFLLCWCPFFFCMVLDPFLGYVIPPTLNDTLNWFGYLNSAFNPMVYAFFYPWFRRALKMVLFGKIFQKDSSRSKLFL

As usually defined, the EC50 is the concentration giving half of the maximal effect. One may read the Ki as the dissociation constant of the complex between target and ligand, obtained from inhibition or displacement. Take `COc1cc(CCN)c(OC)cc1Br` [2C-B, 4-bromo-2,5-dimethoxyphenethylamine]: the EC50 at human 5-HT2B receptor [1] (read-out: h5-HT2B Activation potency EC50 ± SD) was 0.075 ± 0.014 µM. The “h5-HT2B Activation efficacy max ± SD” value at human 5-HT2B receptor [1] (relative to 5-HT) is reported as 52 ± 26%. The Ki on 5-HT1A receptor [2] (read-out: h5-HT1A Receptor binding Ki ± SD, [3H]8-OH-DPAT, ref Luethi et al., 2018) is 0.311 ± 0.046 µM.
In the case of `COc1cc(OC)c(OC)cc1CCN` [2C-O-1, 2,4,5-trimethoxyphenethylamine], in the experiment on humans, the Psychoactivity in humans entry is “fairly inactive in humans; also recorded: not psychoactive in humans”.
Consider `COc1cc(OC(C)C)c(OC)cc1CCN` [2C-O-4, 2,5-dimethoxy-4-isopropoxyphenethylamine], for which, in the experiment with humans, the Psychoactivity in humans result was “fairly inactive in humans; also recorded: not psychoactive in humans”.
Turning to `CCCCOc1cc(OC)c(CC(C)N)cc1OC` (stereo not shown) [MBM, 4-butoxy-2,5-dimethoxyamphetamine], the Psychoactivity in humans result in the experiment with humans is “no psychoactive effects”.
Turning to `CNC(C)Cc1ccc2c(c1)OCO2` (stereo not shown) [MDMA], the Ki at mouse TAAR1 [3] was 2.4 ± 1.1 µM; at hNET [4] it was 30.5 ± 8 µM; at α2A adrenergic receptor [5] it was 15 ± 0.2 µM; on α1A adrenergic receptor [7] it was above 6 µM; at hDAT [8] it was 6.5 ± 2.5 µM; on rat TAAR1 [10], 0.37 ± 0.12 µM. The Ki on dopaminergic D2 receptor [12] is 25.2 ± 2 µM. For the same compound, on hSERT [6], the “Effect on 5-HT uptake into the cells” value is reported as “markedly reduced”. Moreover, at hNET [9], the “Effect on NE uptake into the cells” value is on record as “markedly reduced”. Besides, the concentration giving a half-maximal response (EC50) at hDAT [11] was 17 µM. Also, the “Effect on DA uptake into the cells” value on hDAT [13] is recorded as “moderately reduced”.
On to `CCOc1cc(OC)c(CC(C)N)cc1OC` (stereo not shown) [MEM, 2,5-dimethoxy-4-ethoxyamphetamine], for which, in the experiment on humans, the Psychoactivity in humans entry is given as “displayed psychedelic activity”. Moreover, in the experiment with head-twitch response, the “Behavioral potency in head-twitch response” value (“Behavioral potency” below) was “equipotent”.
Consider `CCCOc1cc(OC)c(CC(C)N)cc1OC` (stereo not shown) [MPM, 2,5-dimethoxy-4-propoxyampehtamine], for which the Psychoactivity in humans entry with humans is given as “no psychoactive effects”. The “Behavioral potency” value in the experiment with head-twitch response is “equipotent”.
With `COc1cc(OC)c(OC)cc1CC(C)N` (stereo not shown) [TMA-2, 2,4,5-trimethoxyamphetamine], the inhibition constant Ki at dopaminergic D2 receptor [14] is above 13 µM; at hSERT [15] it was above 7.5 µM; on α2A adrenergic receptor [16], above 4.7 µM; at 5-HT1A receptor [17], above 17 µM; on mouse TAAR1 [18] it was above 4.4 µM; on rat TAAR1 [19], 3.1 ± 0.1 µM. The results for the Ki on α1A adrenergic receptor [20], on hNET [21] and at hDAT [23] were above 6.5 µM, above 8.7 µM and above 8.5 µM, respectively. In the experiment on humans, the Psychoactivity in humans entry was “displayed psychedelic activity”. Further, the “Potency in humans relative to 3,4,5-trimethoxyamphetamine (TMA)” value in the experiment on humans (EMCDDA, 2004) was “roughly 6 times”. Also, the “Behavioral potency” value with head-twitch response was “equipotent”. In addition, on human 5-HT2B receptor [22], the EC50 came to 0.27 µM. For the same compound, the Emax at human 5-HT2B receptor [22] (HEK293, relative to 5-HT = 100%, read-out: h5-HT2B Activation efficacy max ± SD) came out at 78 ± 5%.
In the case of `CC(N)Cc1ccccc1` (stereo not shown) [amphetamine], the Ki on 5-HT1A receptor [2] (read-out: 5-HT1A receptor Ki, ref Simmler et al., 2013) is 6.7 µM.
As for `COc1cc(CCN)cc(OC)c1OC` [mescaline, 3,4,5-trimethoxyphenethylamine], the “Psychoactive oral dose in humans” value in the experiment with humans (oral, humans) is above 200 mg.

Source of the values: paper PMC6893898, “Receptor Interaction Profiles of 4-Alkoxy-Substituted 2,5-Dimethoxyphenethylamines and Related Amphetamines” (Frontiers in Pharmacology, 2019).
